US20230365566A1, “HETEROCYCLIC AMIDES AND THEIR USE FOR MODULATING SPLICING” (REMIX THERAPEUTICS INC., priority 2020, published 2023)
Where a name gives a salt, the structure may show the parent alone.

How the values were obtained:
Type in all cases: cell-based
[1] = test system: HTT CJ mRNA; assay: Gene panel canonical junction qPCR assay, HTT; details: protocol of Example 42, read-out: HTT IC50 (decrease in CJ mRNA levels)
Method: (§1) Compounds described herein were used to modulate RNA transcript abundance in cells. The expression of a target mRNA was measured by detecting the formation of an exon-exon junction in the canonical transcript (CJ). A compound mediated exon-inclusion event was detected by observing an increase in formation of a new junction with an alternative exon (AJ). Real-time qPCR assays were used to detect these splicing switches and interrogate the potency of various compounds towards different target genes. A high-throughput real time quantitative PCR (RT-qPCR) assay was developed to measure these two isoforms of the mRNA (CJ and AJ) for an exemplary gene, HTT, together with a control housekeeping gene, GAPDH or GUSB or PPIA, used for normalization. Briefly, the A673 or K562 cell line was treated with various compounds described herein (e.g., compounds of Formula (I)). After treatment, the levels of the HTT mRNA targets were determined from each sample of cell lysate by cDNA synthesis followed by qPCR.
(§2) The A673 cell line was cultured in DMEM with 10% FBS. Cells were diluted with full growth media and plated in a 96-well plate (15,000 cells in 100 ul media per well). The plate was incubated at 37° C. with 5% CO2 for 24 hours to allow cells to adhere. An 11-point 3-fold serial dilution of the compounds was made in DMSO then diluted in media in an intermediate plate. Compounds were transferred from the intermediate plate to the cell plate with the top dose at a final concentration of 10 uM in the well. Final DMSO concentration was kept at or below 0.25%. The cell plate was returned to the incubator at 37° C. with 5% CO2 for an additional 24 hours.
(§3) The K562 cell line was cultured in IMDM with 10% FBS. For K562, cells were diluted with full growth media and plated in either a 96-well plate (50,000 cells in 50 uL media per well) or a 384-well plate (8,000-40,000 cells in 45 uL media per well). An 11-point 3-fold serial dilution of the compounds were made in DMSO then diluted in media in an intermediate plate. Compound was transferred from the intermediate plate to the cell plate with the top dose at a final concentration of 10 uM in the well. Final DMSO concentration was kept at or below 0.25%. Final volume was 100 uL for 96-well plate and 50 uL for 384-well plate. The cell plate was then placed in an incubator at 37° C. with 5% CO2 for 24 hours.
(§4) The data analysis was performed by first determining the ACt vs the housekeeper gene. This ACt was then normalized against the DMSO control (AACt) and converted to RQ (relative quantification) using the 2^(−ΔΔCt) equation. The RQ were then converted to a percentage response by arbitrarily setting an assay window of 3.5 ΔCt for HTT-CJ and an assay window of 9 ΔCt for HTT-AJ. […] The percentage response was then fitted to the 4 parametric logistic equation to evaluate the concentration dependence of compound treatment. The increase in AJ mRNA is reported as AC50 (compound concentration having 50% response in AJ increase) while the decrease in CJ mRNA levels is reported as IC50 (compound concentration having 50% response in CJ decrease).
(§5) Additional studies were carried out for a larger panel of genes using the protocol provided above. The junction between flanking upstream and downstream exons was used to design canonical junction qPCR assays. At least one of the forward primer, reverse primer or the CY5-labeled 5′ nuclease probe (with 3′ quencher such as ZEN/Iowa Black FQ) was designed to overlap with the exon junction to capture the CJ mRNA transcript. BLAST was used to confirm the specificity of the probeset and parameters such as melting temperature, GC content, amplicon size, and primer dimer formation are considered during their design. Data for the decrease in CJ mRNA levels for three exemplary genes (HTT, SMN2, and Target C) analyzed in this panel are reported as IC50 (compound concentration having 50% response in CJ decrease).

[2] = test system: HTT mRNA canonical junction (CJ); assay: Splicing RT-qPCR assay, decrease of HTT canonical junction (CJ) mRNA; details: A673 or K562 cells, 24 hours compound treatment, concentration having 50% response in CJ decrease
Method: as §1, §2, §3
(§6) The cells were then gently washed with 50 uL-100 uL cold PBS before proceeding to addition of lysis buffer. 30 uL-50 uL of room temperature lysis buffer with DNAse I (and optionally RNAsin) was added to each well. Cells were shaken/mixed thoroughly at room temperature for 5-10 minutes for lysis to take place and then 3 uL-5 uL of room temperature stop solution was added and wells were shaken/mixed again. After 2-5 minutes, the cell lysate plate was transferred to ice for RT-qPCR reaction setup. The lysates could also be frozen at −80° C. for later use.
(§7) In some cases, a direct lysis buffer was used. An appropriate volume of 3× lysis buffer (10 mM Tris, 150 mM NaCl, 1.5%-2.5% Igepal and 0.1-1 U/uL RNAsin, pH 7.4) was directly added to either K562 or A673 cells in media and mixed by pipetting 3 times. The plates were then incubated at room temperature with shaking/rocking for 20-50 minutes to allow for lysis to take place. After this time, the cell lysate plate was transferred to ice to set up for the RT-qPCR reactions. The lysates could also be frozen at −80° C. for later use.
(§8) To set up 10 uL RT-qPCR reactions, cell lysates were transferred to 384-well qPCR plates containing the master mix according to the table below. The plates were sealed, gently vortexed, and spun down before the run. The volumes were adjusted accordingly in some instances where the reaction was carried in 20 uL. The table below summarizes the components of the RT-qPCR reactions:
(§9) The RT-qPCR reaction was performed using a QuantStudio (ThermoFisher) under the following fast cycling conditions. […]

[3] = test system: SMN2 CJ mRNA; assay: Gene panel canonical junction qPCR assay, SMN2; details: protocol of Example 42, read-out: SMN2 IC50 (decrease in CJ mRNA levels)
Method: as §1, §2, §3, §4, §5

[4] = test system: HTT mRNA alternative junction (AJ); assay: Splicing RT-qPCR assay, increase of HTT alternative junction (AJ) mRNA; details: A673 or K562 cells, 24 hours compound treatment, concentration having 50% response in AJ increase
Method: as §1, §2, §3, §6, §7, §8, §9

[5] = test system: Target C CJ mRNA; assay: Gene panel canonical junction qPCR assay, Target C; details: protocol of Example 42, read-out: Target C IC50 (decrease in CJ mRNA levels)
Method: as §1, §2, §3, §4, §5

SMILES	IC50 [1] [nM]	AC50 [2] [nM]	IC50 [3] [nM]	AC50 [4] [nM]	IC50 [5] [nM]
Cc1cn2cc(NC(=O)c3ccc(C4CCNCC4)c4ccoc34)cc(F)c2n1 [Compound 149, N-[8-fluoro-2-methylimidazo[1,2-a]pyridin-6-yl]-4-(piperidin-4-yl)-1-benzofuran-7-carboxamide hydrochloride]	1000 to 10000	1000 to 10000	< 100	1000 to 10000	> 10000
Cc1cn2cc(NC(=O)c3ccc(N4CCNCC4)c4cn(C)nc34)nc2c(C)n1 [Compound 273]	> 10000	> 10000	< 100	> 10000	> 10000
Cc1cc2c(N3CCNCC3)ccc(C(=O)Nc3cc(F)c4cn(C)nc4c3)c2o1 [Compound 217, N-(4-fluoro-2-methylindazol-6-yl)-2-methyl-4-(piperazin-1-yl)-1-benzofuran-7-carboxamide]	1000 to 10000	1000 to 10000	1000 to 10000	1000 to 10000	> 10000
Cc1cn2cc(NC(=O)c3ccc(N4CCC(N(C)C)C4)c4cn(C)nc34)cc(Cl)c2n1 (stereo not drawn) [Compound 278, N-{8-chloro-2-methylimidazo[1,2-a]pyridin-6-yl}-4-[3-(dimethylamino)pyrrolidin-1-yl]-2-methylindazole-7-carboxamide]	1000 to 10000	1000 to 10000	< 100	1000 to 10000	1000 to 10000
Cc1cc2c(N3CCNCC3)ccc(C(=O)Nc3ccc4cn(C)nc4c3)c2o1 [Compound 261, 2-methyl-N-(2-methylindazol-6-yl)-4-(piperazin-1-yl)-1-benzofuran-7-carboxamide]	1000 to 10000	1000 to 10000	1000 to 10000	1000 to 10000	> 10000
Cc1cn2cc(NC(=O)c3ccc(N4CCC(N5CCCC5)C4)c4cn(C)nc34)cc(F)c2n1 (stereo not drawn) [Compound 272]	100 to 1000	100 to 1000	< 100	100 to 1000	100 to 1000
Cc1cn2cc(NC(=O)c3ccc(N4CCNCC4)c4oc(C)nc34)cc(F)c2n1 [Compound 141, N-[8-fluoro-2-methylimidazo[1,2-a]pyridin-6-yl]-2-methyl-7-(piperazin-1-yl)-1,3-benzoxazole-4-carboxamide hydrochloride]	< 100	< 100	< 100	< 100	100 to 1000
Cc1cn2cc(NC(=O)c3ccc(N4CCC(N(C)C)CC4)c4cc(C)oc34)cc(F)c2n1 [Compound 198, 4-[4-(dimethylamino)piperidin-1-yl]-N-[8-fluoro-2-methylimidazo[1,2-a]pyridin-6-yl]-2-methyl-1-benzofuran-7-carboxamide]	100 to 1000	100 to 1000	< 100	1000 to 10000	1000 to 10000
Cn1cc2c(N3CCNCC3)ccc(C(=O)Nc3cn[nH]c3)c2n1 [Compound 270]	> 10000	> 10000	> 10000	> 10000	> 10000
Cc1cn2cc(NC(=O)c3ccc(N4CCNCC4)c4cc(C)oc34)c(C)cc2n1 [Compound 262]	> 10000	> 10000	< 100	> 10000	> 10000
Cc1cn2cc(NC(=O)c3ccc(N4CCNC(C)C4)c4cn(C)nc34)cc(F)c2n1 (stereo not drawn) [Compound 228]	100 to 1000	100 to 1000	< 100	100 to 1000	100 to 1000
Cc1cn2cc(NC(=O)c3ccc(N4CCNCC4)c4cn(C)nc34)cc(Cl)c2n1 [Compound 269]	100 to 1000	100 to 1000	< 100	100 to 1000	1000 to 10000
Cc1cn2cc(NC(=O)c3ccc(N4CCC(N(C)C)C4)c4cn(C)nc34)cc(F)c2n1 (stereo not drawn) [Compound 258]	1000 to 10000	1000 to 10000	< 100	100 to 1000	1000 to 10000
Cc1cn2nc(NC(=O)c3ccc(N4CCNCC4)c4cn(C)nc34)cc2c(C)n1 [Compound 247]	> 10000	> 10000	> 10000	> 10000	> 10000
Cc1cn2cc(NC(=O)c3ccc(N4CCN(C)C(C)C4)c4cc(C)oc34)cc(F)c2n1 (stereo not drawn) [Compound 191]	100 to 1000	100 to 1000	< 100	1000 to 10000	1000 to 10000
Cc1cn2cc(NC(=O)c3ccc(N(C)C4CC(C)(C)NC(C)(C)C4)c4cn(C)nc34)cc(F)c2n1 [Compound 244]	> 10000	> 10000	100 to 1000	> 10000	> 10000
Cc1cn2cc(NC(=O)c3ccc(N4CCNCC4)c4cc(C)oc34)cc(F)c2n1 [Compound 142, N-[8-fluoro-2-methylimidazo[1,2-a]pyridin-6-yl]-2-methyl-4-(piperazin-1-yl)-1-benzofuran-7-carboxamide]	1000 to 10000	1000 to 10000	< 100	1000 to 10000	100 to 1000
Cc1cn2cc(NC(=O)c3ccc(N4CCNCC4)c4cc(C)oc34)cc(Cl)c2n1 [Compound 266]	1000 to 10000	1000 to 10000	< 100	1000 to 10000	> 10000
CCN1CCC(c2ccc(C(=O)Nc3cc(F)c4nc(C)cn4c3)c3nn(C)cc23)CC1 [Compound 210, 4-(1-ethylpiperidin-4-yl)-N-[8-fluoro-2-methylimidazo[1,2-a]pyridin-6-yl]-2-methylindazole-7-carboxamide]	100 to 1000	100 to 1000	< 100	100 to 1000	1000 to 10000
Cc1cn2cc(NC(=O)c3ccc(N4CCNCC4)c4cn(C)nc34)cc(C)c2n1 [Compound 238]	1000 to 10000	1000 to 10000	< 100	1000 to 10000	> 10000
Cc1cn2cc(NC(=O)c3ccc(N4CCN(C)C(C)C4)c4cn(C)nc34)cc(F)c2n1 (stereo not drawn) [Compound 229]	100 to 1000	100 to 1000	< 100	100 to 1000	1000 to 10000
